Columns and labels:
urokinase = assay: Urokinase production inhibition test (HT-1080 culture supernatant urokinase activity); assay type: cell-based, Human; details: HT-1080 cells
Description: This test was conducted substantially according to the method described in Biochem. Biophys. Res. Commun., 142(1), 147-54(1987) as will be described in detail below.
Human fibrosarcoma cells HT-1080 were purchased from American Type Culture Collection (product of Rockville). HT-1080 cells were cultured at 37° C. in a 5% CO2 incubator in RPMI-1640 medium (product of Nissui Seiyaku Co., Ltd.) containing 10% (v/v) of […] bovine fetal serum (product of ATLANTA Biological). The cells were suspended in 0.2% trypsin 2 mM EDTA solution for use in the experiment.
The suspension of HT-1080 cells as adjusted to 1×10^5 cells/ml was placed onto a 96-well flat-bottomed incubation plate dividedly in 200 μl quantities (2×10^4 cells/well) and incubated at 37° C. for 4 hours. The supernatant was thereafter removed and replaced with the same amount of serum-free medium [hereinafter referred to as “serum(−)”], followed by incubation for 20 hours. Subsequently, serum(−) was replaced with 199 μl of serum-containing medium [hereinafter referred to as “serum(+)”], and 1 μl of a sample solution containing an active component of the invention and prepared by dissolving the component in dimethyl sulfoxide (DMSO) was added to serum(+) in the incubation plate, followed by further incubation at 37° C. for 24 hours. The resulting supernatant was removed under suction, serum(−) was added in 200 μl quantities, followed by incubation again for 24 hours, and the supernatant of the culture was collected.
To determine the conditions for measuring urokinase activity in the supernatant, the reaction time and the concentration of a synthetic substrate were investigated using recombinant human urokinase (product of CHROMOGENIX AB) and VLKpA (valylleucyllysyl p-nitroamide, product of Sigma Chemical CO.) serving as the […] at a constant concentration (2.8 μg/ml) of plasminogen. When the culture supernatant of HT-1080 cells was checked for urokinase activity preliminarily, the activity was about 0.02 IU/μl. An urokinase solution with activity of 0.02 IU/μl was reacted with the synthetic substrate of varying concentrations.
A 85 μl portion of the culture supernatant and 15 μl of substrate reaction mixture [427 mM Tris-HCl (pH 8.0), 27 mM EDTA (pH 8.0), 1.5 mM VLKpA, 125 μg/ml plasminogen (product of CHROMOGENIX AB] were mixed together in a 96-well incubation plate and reacted at 37° C. for 30 minutes, and the reaction mixture was checked for absorbance at 405 nm using an immunoreader. The urokinase production inhibition ratio was calculated from the following equation.
Inhibition ratio (%)=(1−T/C)×100
wherein T is the average absorbance of a group given the sample, and C is the average absorbance of a control group.

[1] = tested on: fertilized egg chorioallantonic membrane (CAM); assay: Angiogenesis inhibition test, fertilized egg chorioallantonic membrane (CAM) method; assay type: in vivo, hen; details: scored points over all eggs
Description: This experiment was conducted substantially according to the fertilized egg chorioallantonic membrane (abbreviated as CAM) method described in ADVANCES IN CANCER RESEARCH, vol. 43, 175-203. The fertilized hen's eggs (Plymouth Rock breed×white leghorn breed) used were purchased from Gotoh Brooder (Gifu Prefecture) and incubated in an incubator (product of Tokyo Rikagaku Kikai Co., Ltd.) at a humidity of 70% and 37° C.
The air chamber of each egg was located by illuminating the egg and the egg shell was injured with a rotary file at two locations, i.e., an upper portion of the air chamber and a side portion of the egg on day 3, taking the day when the incubation was started as day 0. About 3 ml of the albumen was aspirated through the side hole with a syringe for removal, and the air was removed from the upper portion with a dropper. With the side hole sealed with OpSite (product of Smith and Nephew Ltd.), the air chamber upper portion was injured in the form of a 1 cm square, the egg shell and the egg membrane were removed from the square area, and the opening was sealed with OpSite. The seal was removed from the opening on day 5 to form a window, which was sealed with Tegaderm (product of 3M Health Care Ltd.). A disk is made from 20 μl of 1% gelatin with drying, 20 μl of 0.5% aqueous methyl cellulose solution containing an active component of the invention was applied to the disk to form a superposed layer, and the resulting disk was dried in a clean bench. The Tegaderm seal was removed, the disk was placed at rest on the CAM, and the window was sealed again. The shell was removed from an upper portion of the egg on day 7, and 1 ml of 20% Intralipos (product of Green Cross Co., Ltd.) was injected into the egg under the CAM. The CAM was observed under a surgical microscope and photographed at a magnification of ×4 to ×8.
The effect to inhibit angiogenesis was determined substantially according to the method described in Cancer Lett., 48(2), 157-62(1989). More specifically, a vessel-free region, when found over a distance of at least 2 mm around the methyl cellulose layer, was interpreted as indicating angiogenesis inhibitory activity (+), weak inhibitory activity of less than 2 mm as indicating quasi-positive (±), and no vessel-free region within 2 mm as indicating negative (−). At least six fertilized eggs were used for testing. The angiogenesis inhibition ratio was determined by evaluating (+) as 1 point, (±) as 0.5 point and (−) as 0 point, and calculating the ratio of the points each compound scored for all the eggs used.

[2] = tested on: Lewis lung cancer strain (LLC); assay type: in vivo
Description: The test animals used were 7-week-old female C57BL/6 mice (Nippon Charles River) weighing 17 to 20 g. A subcutaneous tumor (1.0×10^5 cells) of Lewis lung cancer strain (LLC) was transplanted in the mice, and a suspension of a test compound in an aqueous solution of 3% ethanol and 5% gum arabic was given on day 3 and thereafter. The test compound used was compound 6, which was intraperitoneally administered at a dose of 15 mg/kg every other day. On the other hand, 100 μl of 3% ethanol-5% gum arabic aqueous solution was intraperitoneally given to a control group. The mice were checked for body weight and the major and minor diameters of the primary tumor every other day, and an estimated tumor volume (V) was determined by calculating (minor diameter)^2×(major diameter)÷2. The tumor growth inhibition ratio (%) was calculated from the estimated tumor volume of day 24 after the transplantation using the following equation.
Tumor growth inhibition ratio (%)=(1−Tv/Cv)×100
wherein Tv is the tumor volume (mm^3) of the group given the test compound, and Cv is the tumor volume (mm^3) of the control group.
The tumor was excised from each mouse, fixed with acetone, and checked for the number of lesions metastasized to the lungs to calculate the lung metastasis inhibition ratio (%) from the following equation.
Lung metastasis inhibition ratio (%)=(1−T/C)×100
wherein T is the number of metastatic nodules in the group given the test compound, and C is the number of metastatic nodules in the control group.

[3] = 15 mg/kg intraperitoneally every other day, LLC-bearing mice

Row | SMILES | urokinase inhibition ratio (%) (urokinase; concentration 3.13 μg/ml) | melting point | angiogenesis inhibition ratio (%) ([1]; dosage 40 μg/egg) | also measured
1 | c1ccc(C23Cc4ccccc4C(c4ccccc4)(OO2)O3)cc1 (stereo not drawn) [Compound 11, 4,5-dihydro-1,4-diphenyl-1,4-epoxy-1H-2,3-benzodioxepin] | 91.4% | 119 °C | – | –
2 | COc1ccc(C23OOC(c4ccccc4)(O2)C(C)c2ccccc23)cc1 (stereo not drawn) [Compound 3, 4,5-dihydro-1-p-anisyl-5-methyl-4-phenyl-1,4-epoxy-1H-2,3-benzodioxepin] | 93.8% | 135 to 136 °C | 63% | urokinase inhibition ratio (%) (urokinase; concentration 6.25 μg/ml): 94.4%
3 | c1ccc(C23OOC(O2)c2cccc4cccc3c24)cc1 (stereo not drawn) [Compound 6, 1-phenyl-1,4-epoxy-1H,4H-naphtho[1,8-de][1,2]dioxepin] | – | – | 100% | urokinase inhibition ratio (%) (urokinase; concentration 50.0 μg/ml): 90.1%; tumor growth inhibition ratio ([2]; 15 mg/kg intraperitoneally every other day from day 3, estimated tumor volume of day 24, subcutaneous LLC in mice): 59.2%; lung metastasis inhibition ratio ([2]; 15 mg/kg intraperitoneally every other day from day 3, number of metastatic nodules in lungs, LLC in mice): 75.8%; death in the mice [2, 3]: no death; reduction in body weight [2, 3]: little or no reduction in body weight
4 | CC12OOC(c3ccccc3)(O1)c1ccccc1C2c1ccccc1 (stereo not drawn) [Compound 1, 4,5-dihydro-1,5-diphenyl-4-methyl-1,4-epoxy-1H-2,3-benzodioxepin] | 90.5% | 178 to 180 °C | 75% | angiogenesis inhibition ratio (%) ([1]; dosage 10 μg/egg): 67%; urokinase inhibition ratio (%) (urokinase; concentration 1.56 μg/ml): 90.0%
5 | CC(C)C1c2ccccc2C2(c3ccccc3)OOC1(c1ccccc1)O2 (stereo not drawn) [Compound 4, 4,5-dihydro-1,4-diphenyl-5-isopropyl-1,4-epoxy-1H-2,3-benzodioxepin] | – | 130 to 132 °C | – | –
6 | c1ccc(C2c3ccccc3C3OC2(c2ccccc2)ON3c2ccccc2)cc1 (stereo not drawn) [Compound 8, 1,2,4,5-tetrahydro-2,4,5-triphenyl-1,4-epoxy-3,2-benzoxazepin] | – | 155 to 156 °C | 56% | urokinase inhibition ratio (%) (urokinase; concentration 25.0 μg/ml): 82.2%; urokinase inhibition ratio (%) (urokinase; concentration 50.0 μg/ml): 93.4%
7 | CC1c2ccccc2C2(c3ccccc3)OOC1O2 (stereo not drawn) [Compound 9, 4,5-dihydro-5-methyl-1-phenyl-1,4-epoxy-1H-2,3-benzodioxepin] | – | 127 to 128 °C | – | –
8 | c1ccc(C2c3ccccc3C3(c4ccccc4)OOC2(c2ccccc2)O3)cc1 (stereo not drawn) [Compound 10, 4,5-dihydro-1,4,5-triphenyl-1,4-epoxy-1H-2,3-benzodioxepin] | 94.1% | 171 to 173 °C | – | –
9 | Cc1ccc(C23OOC(c4ccccc4)(O2)C(C)c2ccccc23)cc1 (stereo not drawn) [Compound 2, 4,5-dihydro-5-methyl-4-phenyl-1-p-tolyl-1,4-epoxy-1H-2,3-benzodioxepin] | – | 139 to 141 °C | – | urokinase inhibition ratio (%) (urokinase; concentration 12.5 μg/ml): 88.3%

Reference: patent US6365610B1, “Ozonide compounds with inhibitory activity for urokinase production and angiogenesis” (Taiho Pharmaceutical Company Ltd., priority 1998, dated 2002)
